# Experimental data as given in paper PMC4832243, “Discovery of Potent VEGFR-2 Inhibitors based on Furopyrimidine and Thienopyrimidne Scaffolds as Cancer Targeting Agents” (Scientific Reports, 2016).
# What was measured:
# [1] = target: phospho-VEGFR-2 (Tyr951) (Mus musculus, UniProt P35918); experiment: Immunohistochemistry of EAC solid tumor sections, phospho-VEGFR-2; conditions: oral treatment of EAC-bearing mice
# [2] = tested on: active caspase 3; experiment: Immunohistochemistry of EAC solid tumor sections, active caspase 3; conditions: oral treatment of EAC-bearing mice
# [3] = tested on: VEGF-induced vascular permeability (Evans Blue extravasation); experiment: Miles vascular permeability assay; parameters: species or system mice; conditions: in vivo; 10 mg/kg (Fig. 15)
# Experimental: Miles Vascular Permeability Assay. One to two days prior to the experiment, mice were shaved to expose the skin. Mice were anesthetized with intra-peritoneal injection of Avertin. A sterile solution of 1% Evans Blue (EB) in PBS was prepared and 100 μl was injected IV into the tail vein, using a needle (small gauge, 27–30) at a 10–15 degree angle. The animals were then left for (30–60) min. VEGF (50 μl of 1 ng/μl) and 50 μl of PBS with 0.05% gelatin were injected intradermally using a 30-gauge needle into the skin overlying the back. After 20 min, the animals were sacrificed by cervical dislocation that is recommended to limit significant interference with vascular permeability. The skin was opened, exposed and representative pictures were taken to assess the intensity of EB […]. The Formamide/EB mixture was centrifuged and supernatant absorbance was measured at 600 nm (Shimadzu Spectrophotometer, UV-1601; Japan). extravasation was calculated as ng EB per mg tissue.
# [4] = target: RET (Homo sapiens, UniProt P07949); experiment: In vitro multiple-kinase inhibition assay, RET; type: biochemical
# Experimental: (§1) In vitro multiple-kinase inhibition assay. […] Kinase enzymatic activity of the tested compounds was evaluated against a reference kinase inhibitor at 10 μM (Table 2).
# (§2) The multiple kinases activity at single dose concentration of 10 μM was performed, c-Kit, c-Raf, c-Src, RET served as the enzyme source. […] Kinase-Glo Plus Luminescence kinase assay kit (Promega#V3772), ADP-Glo Luminescence assay kit was used for c-kit assay (Supplementary). […]
# (§3) mM MgCl2, 0.1 mg/ml BSA, 1 mM DTT, 10 µM ATP, Kinase substrate and VEGFR. After the enzymatic reaction, 50 µl of Kinase-Glo Plus Luminescence kinase assay solution (Promega) was added to each reaction and incubate the plate for 5 minutes at room temperature.
# (§4) Luminescence signal was measured using a BioTek Synergy 2 microplate reader. VEGFR activity assays were performed in duplicate at each concentration.
# (§5) The luminescence data were analyzed using the computer software, Graphpad Prism. The difference between luminescence intensities in the absence of VEGFR (Lut) and in the presence of VEGFR (Luc) was defined as 100 % activity (Lut – Luc). Using luminescence signal (Lu) in the presence of the compound, % activity was calculated as:
# (§6) % activity = {(Lut - Lu)/(Lut - Luc)}×100%, where Lu= the luminescence intensity in the […]
# (§7) IC50 determination for inhibitor against VEGFR was calculated. The values of % activity versus a series of compound concentrations (1 nM - 10 nM - 100 nM - 1 µM - 10 µM) were then […]
# (§8) or Hill coefficient. The IC50 value was determined by the concentration causing a half-maximal […]
# (§9) In vitro multiple-kinase inhibition assay
# (§10) Luminescence signal was measured using a BioTek Synergy 2 microplate reader […]
# (§11) The luminescence data were analyzed using the same computer software and the same protocol
# [5] = target: c-Raf (Homo sapiens, UniProt P04049); experiment: In vitro multiple-kinase inhibition assay, c-Raf; type: biochemical
# Experimental: as §1, §2, §3, §4, §5, §6, §7, §8, §9, §10, §11
# [6] = Toxicity: vital organs' indices and histopathology in EAC solid tumor bearing mice; type: in vivo, Swiss albino mice; conditions: for Brain Index / Heart Index / Kidney Index / Liver Index: mean ± SD (n = 6)
# [7] = target: c-Kit (Homo sapiens, UniProt P10721); experiment: In vitro multiple-kinase inhibition assay, c-Kit (ADP-Glo); type: biochemical
# Experimental: as §1, §2, §3, §4, §5, §6, §7, §8, §9
# The assay was performed using the same conditions for VEGFR-2 activity assay (section 5.2.1.1). The assays for c-Kit was an exception, it was performed using ADP-Glo Kinase assay reagents (Promega). It measures kinase activity by quantitating the ADP amount produced from the enzymatic reaction. The luminescent signal from the assay is correlated with the amount of ADP present and is directly correlated with the amount of kinase activity. Other conditions are same to the previous section except the final reaction volume was reduced to 25 µl. After the 40 min kinase reaction at 30 °C, 25 µl of ADP-Glo reagent was added and incubated for 45 min at room temperature followed by another 50 min incubation with 50 µl of Kinase detection mixture.
# as §10, §11
# [8] = target: c-Src (Homo sapiens, UniProt P12931); experiment: In vitro multiple-kinase inhibition assay, c-Src; type: biochemical
# Experimental: as §1, §2, §3, §4, §5, §6, §7, §8, §9, §10, §11
# [9] = tested on: CD31 and CD34 (% MVD); experiment: Immunohistochemistry of EAC solid tumor sections, microvessel density (CD31, CD34); conditions: oral treatment of EAC-bearing mice
# Sequence of RET (P07949 29-1114, species assumed): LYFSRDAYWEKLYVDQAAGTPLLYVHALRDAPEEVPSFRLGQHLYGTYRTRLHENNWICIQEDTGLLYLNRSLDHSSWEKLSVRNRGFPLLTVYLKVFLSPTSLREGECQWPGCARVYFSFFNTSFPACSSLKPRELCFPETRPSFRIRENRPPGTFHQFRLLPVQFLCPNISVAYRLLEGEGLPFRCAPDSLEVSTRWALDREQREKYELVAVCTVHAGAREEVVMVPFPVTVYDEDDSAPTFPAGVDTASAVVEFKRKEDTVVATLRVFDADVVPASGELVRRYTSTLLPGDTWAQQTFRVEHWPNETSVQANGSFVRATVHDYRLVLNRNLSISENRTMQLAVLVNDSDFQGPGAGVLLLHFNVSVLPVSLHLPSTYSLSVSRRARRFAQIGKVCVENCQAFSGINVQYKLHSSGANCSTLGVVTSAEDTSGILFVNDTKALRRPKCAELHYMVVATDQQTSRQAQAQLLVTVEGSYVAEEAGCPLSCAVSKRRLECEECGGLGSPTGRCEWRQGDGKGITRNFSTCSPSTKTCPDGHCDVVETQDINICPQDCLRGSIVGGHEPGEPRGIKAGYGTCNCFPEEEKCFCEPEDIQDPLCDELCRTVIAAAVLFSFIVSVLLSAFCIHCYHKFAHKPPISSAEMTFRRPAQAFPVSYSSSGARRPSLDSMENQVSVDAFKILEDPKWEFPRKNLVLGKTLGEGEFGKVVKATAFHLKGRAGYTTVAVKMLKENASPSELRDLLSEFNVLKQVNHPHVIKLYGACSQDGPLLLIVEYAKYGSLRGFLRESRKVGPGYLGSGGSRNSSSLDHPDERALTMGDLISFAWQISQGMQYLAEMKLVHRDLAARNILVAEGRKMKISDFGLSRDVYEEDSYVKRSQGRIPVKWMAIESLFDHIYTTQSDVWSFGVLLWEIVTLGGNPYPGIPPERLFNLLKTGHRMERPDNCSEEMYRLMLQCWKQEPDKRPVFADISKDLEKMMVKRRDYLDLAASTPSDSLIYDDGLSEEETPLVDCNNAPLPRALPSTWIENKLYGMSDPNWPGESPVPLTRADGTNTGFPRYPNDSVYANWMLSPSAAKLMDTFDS
# Sequence of c-Raf (P04049 whole entry, species assumed): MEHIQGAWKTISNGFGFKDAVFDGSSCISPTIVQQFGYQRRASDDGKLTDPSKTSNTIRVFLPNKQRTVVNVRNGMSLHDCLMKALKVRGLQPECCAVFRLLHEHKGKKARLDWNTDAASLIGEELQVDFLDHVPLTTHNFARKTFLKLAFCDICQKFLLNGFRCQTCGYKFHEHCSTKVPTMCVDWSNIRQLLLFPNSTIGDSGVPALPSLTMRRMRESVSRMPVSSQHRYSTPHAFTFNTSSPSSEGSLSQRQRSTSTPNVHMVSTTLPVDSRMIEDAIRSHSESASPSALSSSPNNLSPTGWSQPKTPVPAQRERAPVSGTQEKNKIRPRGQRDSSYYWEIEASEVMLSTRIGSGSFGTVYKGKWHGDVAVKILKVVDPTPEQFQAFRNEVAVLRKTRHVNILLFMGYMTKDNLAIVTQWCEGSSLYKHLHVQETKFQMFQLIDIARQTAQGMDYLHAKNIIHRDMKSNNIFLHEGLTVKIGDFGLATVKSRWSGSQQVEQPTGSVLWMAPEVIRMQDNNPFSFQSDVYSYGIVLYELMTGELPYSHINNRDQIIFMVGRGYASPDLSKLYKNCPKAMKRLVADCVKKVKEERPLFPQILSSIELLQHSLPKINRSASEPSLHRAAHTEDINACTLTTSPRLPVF
# Sequence of c-Kit (P10721 26-976): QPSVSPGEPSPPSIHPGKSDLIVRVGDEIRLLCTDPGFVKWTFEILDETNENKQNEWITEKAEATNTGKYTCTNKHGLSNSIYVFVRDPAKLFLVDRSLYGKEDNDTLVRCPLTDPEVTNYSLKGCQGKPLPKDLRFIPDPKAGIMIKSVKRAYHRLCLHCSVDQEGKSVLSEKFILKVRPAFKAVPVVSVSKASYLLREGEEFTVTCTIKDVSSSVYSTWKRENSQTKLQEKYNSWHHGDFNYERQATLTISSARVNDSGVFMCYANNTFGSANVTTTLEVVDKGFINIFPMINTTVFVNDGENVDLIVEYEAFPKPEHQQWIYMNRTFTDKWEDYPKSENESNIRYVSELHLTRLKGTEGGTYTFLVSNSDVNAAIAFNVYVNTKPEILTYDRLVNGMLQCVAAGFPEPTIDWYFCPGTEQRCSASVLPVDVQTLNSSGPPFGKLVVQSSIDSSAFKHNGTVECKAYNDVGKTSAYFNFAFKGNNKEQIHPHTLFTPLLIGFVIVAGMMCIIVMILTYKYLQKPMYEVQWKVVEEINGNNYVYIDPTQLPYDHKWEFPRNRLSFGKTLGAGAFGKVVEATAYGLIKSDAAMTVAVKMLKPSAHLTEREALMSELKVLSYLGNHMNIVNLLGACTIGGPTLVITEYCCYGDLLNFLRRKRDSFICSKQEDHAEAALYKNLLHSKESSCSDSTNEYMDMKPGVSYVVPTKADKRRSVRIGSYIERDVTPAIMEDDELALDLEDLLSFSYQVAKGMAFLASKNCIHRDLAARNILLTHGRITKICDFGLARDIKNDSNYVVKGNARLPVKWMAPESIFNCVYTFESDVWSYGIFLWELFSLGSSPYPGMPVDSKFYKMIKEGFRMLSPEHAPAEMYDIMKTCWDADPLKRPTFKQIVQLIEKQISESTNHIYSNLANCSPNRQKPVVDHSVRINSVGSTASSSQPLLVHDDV
# Sequence of c-Src (P12931 whole entry, species assumed): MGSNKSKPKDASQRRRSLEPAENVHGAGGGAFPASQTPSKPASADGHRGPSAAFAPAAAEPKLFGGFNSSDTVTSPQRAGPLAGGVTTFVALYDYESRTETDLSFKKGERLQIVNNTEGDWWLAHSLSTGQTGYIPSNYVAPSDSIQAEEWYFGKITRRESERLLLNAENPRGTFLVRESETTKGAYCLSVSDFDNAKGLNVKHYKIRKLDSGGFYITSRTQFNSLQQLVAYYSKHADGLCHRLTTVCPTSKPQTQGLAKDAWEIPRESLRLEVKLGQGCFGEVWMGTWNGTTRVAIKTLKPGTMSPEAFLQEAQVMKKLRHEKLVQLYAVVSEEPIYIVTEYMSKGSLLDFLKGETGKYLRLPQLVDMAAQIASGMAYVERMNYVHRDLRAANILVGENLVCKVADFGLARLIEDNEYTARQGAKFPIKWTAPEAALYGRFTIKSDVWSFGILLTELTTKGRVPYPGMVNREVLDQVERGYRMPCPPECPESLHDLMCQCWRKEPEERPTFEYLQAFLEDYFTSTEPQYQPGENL
# Sequence of phospho-VEGFR-2 (Tyr951) (P35918 20-1345): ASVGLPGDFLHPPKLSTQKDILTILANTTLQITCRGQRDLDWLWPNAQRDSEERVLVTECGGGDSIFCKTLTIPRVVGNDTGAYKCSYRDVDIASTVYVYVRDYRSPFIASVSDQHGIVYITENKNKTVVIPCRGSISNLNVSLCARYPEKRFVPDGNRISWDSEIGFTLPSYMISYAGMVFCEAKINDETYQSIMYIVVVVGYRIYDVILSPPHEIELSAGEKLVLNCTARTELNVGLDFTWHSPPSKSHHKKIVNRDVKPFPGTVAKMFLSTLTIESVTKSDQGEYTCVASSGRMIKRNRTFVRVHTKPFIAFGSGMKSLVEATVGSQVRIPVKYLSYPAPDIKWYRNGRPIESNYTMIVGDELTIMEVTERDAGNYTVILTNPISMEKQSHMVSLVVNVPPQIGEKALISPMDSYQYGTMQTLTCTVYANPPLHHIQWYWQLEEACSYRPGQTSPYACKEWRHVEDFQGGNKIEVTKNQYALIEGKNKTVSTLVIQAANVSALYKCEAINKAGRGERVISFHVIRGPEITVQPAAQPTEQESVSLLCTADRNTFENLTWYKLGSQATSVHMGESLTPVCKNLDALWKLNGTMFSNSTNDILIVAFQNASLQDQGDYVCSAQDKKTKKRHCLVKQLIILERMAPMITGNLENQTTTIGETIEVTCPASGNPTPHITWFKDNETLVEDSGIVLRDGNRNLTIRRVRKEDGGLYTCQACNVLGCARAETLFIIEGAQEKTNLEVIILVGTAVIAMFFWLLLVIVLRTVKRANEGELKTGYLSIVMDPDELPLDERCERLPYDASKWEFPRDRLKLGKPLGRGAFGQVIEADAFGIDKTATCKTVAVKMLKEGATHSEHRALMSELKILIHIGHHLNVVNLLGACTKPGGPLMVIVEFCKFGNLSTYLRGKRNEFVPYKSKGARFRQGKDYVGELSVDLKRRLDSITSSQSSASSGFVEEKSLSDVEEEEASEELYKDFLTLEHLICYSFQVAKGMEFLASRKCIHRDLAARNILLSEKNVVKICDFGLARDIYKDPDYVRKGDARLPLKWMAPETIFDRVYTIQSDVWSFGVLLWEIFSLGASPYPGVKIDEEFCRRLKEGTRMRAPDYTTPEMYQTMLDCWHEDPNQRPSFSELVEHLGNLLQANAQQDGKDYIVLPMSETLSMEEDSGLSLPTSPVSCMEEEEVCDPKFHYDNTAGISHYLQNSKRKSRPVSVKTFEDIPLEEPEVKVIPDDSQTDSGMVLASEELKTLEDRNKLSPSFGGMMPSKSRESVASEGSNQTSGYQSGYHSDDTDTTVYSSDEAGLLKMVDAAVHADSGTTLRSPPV
Compound,VEGFR-2 phosphorylation in EAC solid tumor [1],Active caspase 3 levels in EAC solid tumor [2],Antiangiogenic effect in Miles vascular permeability assay [3],inhibition at 10 µM [4] [%],inhibition at 10 µM [5] [%],Brain Index ([6]; 5 mg/kg/day po),Heart Index ([6]; 5 mg/kg/day po),Kidney Index ([6]; 5 mg/kg/day po),Liver Index ([6]; 5 mg/kg/day po),Brain Index ([6]; 10 mg/kg/day po),Heart Index ([6]; 10 mg/kg/day po),Kidney Index ([6]; 10 mg/kg/day po),Liver Index ([6]; 10 mg/kg/day po),"Histopathological examination of liver, kidney, heart and brain samples ([6]; 10 mg/kg, EAC solid tumor bearing mice (40x))","Toxicity (overall statement) ([6]; oral, 5 and 10 mg/kg/day for 8 consecutive days)",inhibition at 10 µM [7] [%],inhibition at 10 µM [8] [%],%MVD in EAC solid tumor [9]
Cc1cccc(NC(=O)Nc2ccc(Oc3ncnc4sc5c(c34)CCCC5)cc2)c1 [Compound 21b],decreased VEGFR-2 phosphoryaltion,increased active caspase 3 levels,confirmed the antiangiogenic effects,87,35,0.0164 ± 0.004,0.0048 ± 0.0014,0.012 ± 0.003,0.049 ± 0.01,0.0167 ± 0.004,0.0046 ± 0.0017,0.011 ± 0.003,0.051 ± 0.017,focally degenerated hepatocytes,did not show any noticeable toxicity,81,7,reduction of %MVD
COc1cccc(NC(=O)Nc2ccc(Oc3ncnc4sc5c(c34)CCCC5)cc2)c1 [Compound 21c],,,,91,26,,,,,,,,,,,83,8,
